Test results as given in patent US8440708B2, “Triazole-substituted arylamides as P2X3 and P2X2/3 antagonists” (Roche Palo Alto LLC, priority 2007, dated 2013).

Key:
[1] = target: T1, human P2X2/3 receptor (Homo sapiens, UniProt P56373+Q9UBL9); test: P2X3/P2X2/3 FLIPR (Fluorometric Imaging Plate Reader) Assay, P2X2/3; type: cell-based; conditions: CHO-K1 cells transfected with human P2X2/3; agonist α,β-meATP 5 μM; Table 1; read-out: P2X2/3 pKi (converted)
T1 construct: expressed in transfected cells; host or cells: CHO-K1
T1 sequence (Q9UBL9 1-471): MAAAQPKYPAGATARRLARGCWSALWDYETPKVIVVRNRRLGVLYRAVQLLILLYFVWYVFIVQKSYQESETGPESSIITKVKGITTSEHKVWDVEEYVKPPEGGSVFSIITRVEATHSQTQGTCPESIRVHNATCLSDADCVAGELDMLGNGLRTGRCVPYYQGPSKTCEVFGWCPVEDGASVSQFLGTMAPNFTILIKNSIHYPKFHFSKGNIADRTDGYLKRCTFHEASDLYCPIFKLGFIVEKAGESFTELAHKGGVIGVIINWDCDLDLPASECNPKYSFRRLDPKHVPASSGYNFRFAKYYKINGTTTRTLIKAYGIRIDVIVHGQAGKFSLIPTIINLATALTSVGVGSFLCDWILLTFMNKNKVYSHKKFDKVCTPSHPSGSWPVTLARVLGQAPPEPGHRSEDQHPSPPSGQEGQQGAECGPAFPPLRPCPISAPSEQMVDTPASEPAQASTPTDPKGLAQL
T1 sequence (P56373 1-397): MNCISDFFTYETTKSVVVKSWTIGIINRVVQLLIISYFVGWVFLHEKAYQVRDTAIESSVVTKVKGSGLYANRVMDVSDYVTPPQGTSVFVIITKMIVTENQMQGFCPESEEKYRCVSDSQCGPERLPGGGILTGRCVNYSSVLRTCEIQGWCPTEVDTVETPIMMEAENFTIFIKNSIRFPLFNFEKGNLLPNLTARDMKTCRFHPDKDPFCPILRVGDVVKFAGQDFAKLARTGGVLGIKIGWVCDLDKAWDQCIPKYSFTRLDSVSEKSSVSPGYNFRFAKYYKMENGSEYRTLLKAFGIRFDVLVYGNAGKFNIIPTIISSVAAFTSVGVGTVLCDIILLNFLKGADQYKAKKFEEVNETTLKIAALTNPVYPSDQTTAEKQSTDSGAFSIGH
Summary of the method: (§1)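 Inhibition of α,β-meATP-induced (P2X3 1 μM; P2X2/3 5 μM) intracellular calcium rise was measured by FLIPR in transfected CHO-K1 cells with a 20 min compound preincubation. Values derive from nonlinear regression of peak responses.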

[2] = target: T2, rat P2X3 receptor (Rattus norvegicus, UniProt P49654); test: P2X3/P2X2/3 FLIPR (Fluorometric Imaging Plate Reader) Assay, P2X3; type: cell-based; conditions: CHO-K1 cells transfected with rat P2X3; agonist α,β-meATP 1 μM; Table 1; read-out: P2X3 pKi (converted)
T2 construct: expressed in transfected cells; host or cells: CHO-K1
T2 sequence (P49654 1-397): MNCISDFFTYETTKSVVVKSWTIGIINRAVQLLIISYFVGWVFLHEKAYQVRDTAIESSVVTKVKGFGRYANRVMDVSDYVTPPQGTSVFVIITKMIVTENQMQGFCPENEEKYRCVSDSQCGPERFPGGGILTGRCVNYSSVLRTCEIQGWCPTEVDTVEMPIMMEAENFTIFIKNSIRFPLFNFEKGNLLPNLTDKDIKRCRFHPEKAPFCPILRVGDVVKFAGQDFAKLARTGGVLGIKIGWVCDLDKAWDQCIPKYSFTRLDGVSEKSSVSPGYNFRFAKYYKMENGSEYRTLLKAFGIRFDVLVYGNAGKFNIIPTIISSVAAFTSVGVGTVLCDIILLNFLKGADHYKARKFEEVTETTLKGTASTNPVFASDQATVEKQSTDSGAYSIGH
Summary of the method: as §1

Row | SMILES | Ki [1] [nM] | Ki [2] [nM]
1 | CCCc1ncnn1-c1cc(C(=O)NC2CC2)cc(-c2ccc(Cl)cn2)c1 [Compound 112, 3-(5-Chloro-pyridin-2-yl)-N-cyclopropyl-5-(5-propyl-[1,2,4]triazol-1-yl)-benzamide] | 1860 | 10.2
2 | CCCc1ncnn1-c1cc(C(=O)NC2CC2)cc(-c2ccc(C)cn2)c1 [Compound 113, N-Cyclopropyl-3-(5-methyl-pyridin-2-yl)-5-(5-propyl-[1,2,4]triazol-1-yl)-benzamide] | 1580 | 4.57
3 | CCCc1ncnn1-c1cc(C(=O)N[C@@H](C)CO)cc(-c2ccc(C)cn2)c1 [Compound 114, N-((S)-2-Hydroxy-1-methyl-ethyl)-3-(5-methyl-pyridin-2-yl)-5-(5-propyl-[1,2,4]triazol-1-yl)-benzamide] | 2880 | 4.79
4 | CCCc1ncnn1-c1cc(C(=O)NC(C)c2cnccn2)cc(-c2ccc(C)cn2)c1 (stereo not drawn) [Compound 115, 3-(5-Methyl-pyridin-2-yl)-5-(5-propyl-[1,2,4]triazol-1-yl)-N-(1-pyrazin-2-yl-ethyl)-benzamide] | 79.4 | 3.31
5 | CCCc1ncnn1-c1cc(C(=O)NCc2cnc(C)cn2)cc(-c2ccc(C)cn2)c1 [Compound 116, N-(5-Methyl-pyrazin-2-ylmethyl)-3-(5-methyl-pyridin-2-yl)-5-(5-propyl-[1,2,4]triazol-1-yl)-benzamide] | 85.1 | 2.51
6 | Cc1ccc(-c2cc(C(=O)NCc3cnc(C)cn3)cc(-c3ncn(C(C)C)n3)c2)cc1 [Compound 117, 5-(1-Isopropyl-1H-[1,2,4]triazol-3-yl)-4′-methyl-biphenyl-3-carboxylic acid (5-methyl-pyrazin-2-ylmethyl)-amide] | 398 | 11.5
7 | Cc1ccc(-c2cc(C(=O)NC(C)c3cnccn3)cc(-n3ncnc3CC(C)C)c2)nc1 (stereo not drawn) [Compound 118, 3-(5-Isobutyl-[1,2,4]triazol-1-yl)-5-(5-methyl-pyridin-2-yl)-N-(1-pyrazin-2-yl-ethyl)-benzamide] | 35.5 | 4.27
8 | Cc1ccc(-c2cc(C(=O)NCc3cnc(C)cn3)cc(-n3ncnc3CC(C)C)c2)nc1 [Compound 119, 3-(5-Isobutyl-[1,2,4]triazol-1-yl)-N-(5-methyl-pyrazin-2-ylmethyl)-5-(5-methyl-pyridin-2-yl)-benzamide] | 23.4 | 3.55
9 | CC(C)c1ncnn1-c1cc(C(=O)NC(C)c2cnccn2)cc(-c2ccc(Cl)cn2)c1 (stereo not drawn) [Compound 120, 3-(5-Chloro-pyridin-2-yl)-5-(5-isopropyl-[1,2,4]triazol-1-yl)-N-(1-pyrazin-2-yl-ethyl)-benzamide] | 132 | 7.59
10 | Cc1cnc(CNC(=O)c2cc(-c3ccc(Cl)cn3)cc(-n3ncnc3C(C)C)c2)cn1 [Compound 121, 3-(5-Chloro-pyridin-2-yl)-5-(5-isopropyl-[1,2,4]triazol-1-yl)-N-(5-methyl-pyrazin-2-ylmethyl)-benzamide] | 107 | 5.89
11 | CC(C)c1ncnn1-c1cc(C(=O)N[C@@H](C)CO)cc(-c2ccc(Cl)cn2)c1 [Compound 122, 3-(5-Chloro-pyridin-2-yl)-N-((S)-2-hydroxy-1-methyl-ethyl)-5-(5-isopropyl-[1,2,4]triazol-1-yl)-benzamide] | 1290 | 19.1
12 | CC(C)c1ncnn1-c1cc(C(=O)NC2CC2)cc(-c2ccc(Cl)cn2)c1 [Compound 123, 3-(5-Chloro-pyridin-2-yl)-N-cyclopropyl-5-(5-isopropyl-[1,2,4]triazol-1-yl)-benzamide] | 871 | 11
13 | CCc1ncnn1-c1cc(C(=O)NCc2cnc(C)cn2)cc(-c2ccc(Cl)cn2)c1 [Compound 124, 3-(5-Chloro-pyridin-2-yl)-5-(5-ethyl-[1,2,4]triazol-1-yl)-N-(5-methyl-pyrazin-2-ylmethyl)-benzamide] | 1150 | 13.5
14 | Cc1ccc(-c2cc(C(=O)NCc3cnc(C)cn3)cc(-n3ncnc3C3CC3)c2)nc1 [Compound 125, 3-(5-Cyclopropyl-[1,2,4]triazol-1-yl)-N-(5-methyl-pyrazin-2-ylmethyl)-5-(5-methyl-pyridin-2-yl)-benzamide] | 245 | 19.1
15 | CCc1ncnn1-c1cc(C(=O)NC2CC2)cc(-c2ccc(C)cn2)c1 [Compound 126, N-Cyclopropyl-3-(5-ethyl-[1,2,4]triazol-1-yl)-5-(5-methyl-pyridin-2-yl)-benzamide] | 3720 | 29.5
16 | CCc1ncnn1-c1cc(C(=O)N[C@@H](C)CO)cc(-c2ccc(C)cn2)c1 [Compound 127, 3-(5-Ethyl-[1,2,4]triazol-1-yl)-N-((S)-2-hydroxy-1-methyl-ethyl)-5-(5-methyl-pyridin-2-yl)-benzamide] | 6920 | 24.5
17 | CCc1ncnn1-c1cc(C(=O)NC(C)c2cnccn2)cc(-c2ccc(C)cn2)c1 (stereo not drawn) [Compound 128, 3-(5-Ethyl-[1,2,4]triazol-1-yl)-5-(5-methyl-pyridin-2-yl)-N-(1-pyrazin-2-yl-ethyl)-benzamide] | 257 | 10.2
18 | CCc1ncnn1-c1cc(C(=O)NCc2cnc(C)cn2)cc(-c2ccc(C)cn2)c1 [Compound 129, 3-(5-Ethyl-[1,2,4]triazol-1-yl)-N-(5-methyl-pyrazin-2-ylmethyl)-5-(5-methyl-pyridin-2-yl)-benzamide] | 79.4 | 4.9
19 | Cc1ccc(-c2cc(C(=O)NC3CC3)cc(-n3ncnc3CC(C)C)c2)nc1 [Compound 130, N-Cyclopropyl-3-(5-isobutyl-[1,2,4]triazol-1-yl)-5-(5-methyl-pyridin-2-yl)-benzamide] | 182 | 4.27
20 | Cc1ccc(-c2cc(C(=O)N[C@@H](C)CO)cc(-n3ncnc3CC(C)C)c2)nc1 [Compound 131, N-((S)-2-Hydroxy-1-methyl-ethyl)-3-(5-isobutyl-[1,2,4]triazol-1-yl)-5-(5-methyl-pyridin-2-yl)-benzamide] | 158 | 3.72
21 | Cc1ccc(-c2cc(C(=O)NCc3cnc(C)cn3)cc(-n3ncnc3C(C)C)c2)nc1 [Compound 132, 3-(5-Isopropyl-[1,2,4]triazol-1-yl)-N-(5-methyl-pyrazin-2-ylmethyl)-5-(5-methyl-pyridin-2-yl)-benzamide] | 38.9 | 3.31
22 | COC(C)c1ncnn1-c1cc(C(=O)NCc2cnc(C)cn2)cc(-c2ccc(C)cn2)c1 (stereo not drawn) [Compound 133, 3-[5-(1-Methoxy-ethyl)-[1,2,4]triazol-1-yl]-N-(5-methyl-pyrazin-2-ylmethyl)-5-(5-methyl-pyridin-2-yl)-benzamide] | 295 | 11
23 | COC(C)c1ncnn1-c1cc(C(=O)NCc2cnc(C)cn2)cc(-c2ccc(C)cc2)c1 (stereo not drawn) [Compound 134, 5-[5-(1-Methoxy-ethyl)-[1,2,4]triazol-1-yl]-4′-methyl-biphenyl-3-carboxylic acid (5-methyl-pyrazin-2-ylmethyl)-amide] | 38 | 6.61
24 | Cc1ccc(-c2cc(C(=O)NCc3cnc(C)cn3)cc(-n3ncnc3C(C)C)c2)c(F)c1 [Compound 135, 2′-Fluoro-5-(5-isopropyl-[1,2,4]triazol-1-yl)-4′-methyl-biphenyl-3-carboxylic acid (5-methyl-pyrazin-2-ylmethyl)-amide] | 25.7 | 4.79
